Measured values reported in US10995083B2, “Cocrystal of 2-(6-methyl-pyridine-2-yl)-3-yl-[6-amide-quinoline-4-yl]-5,6-dihydro-4H-pyrrole[1,2-b]pyrazole, preparation method therefor, and pharmaceutical composition” (Hangzhou SoliPharma Co., Ltd., priority 2017, dated 2021).
Counter-ions that a name gives are not always drawn.

Legend:
[1] = apparent water solubility test; assay type: physicochemical; settings: for Solubility: apparent water solubility, 25° C.±2° C., clarity observed by naked eye, 5 mg sample, max 100 mL water; for apparent water solubility: as shown in Comparative Example 1
Protocol: Accurately weighed 5 mg samples in a 200 mL flask which was in a water bath with temperature 25° C.±2° C., added water in a geometric fashion the flask, stirred (about 200 r/min), and observed by naked eyes to see if it was clear. Water was added every 3 mins, maximum water amount 100 mL.

[2] = storage phase stability of crystalline form at 25° C./60% relative humidity; assay type: physicochemical; settings: 6 months of storage at 25° C./60% relative humidity

Solubility [1] [µg/mL]	apparent water solubility [1]	crystalline form after storage (phase stability) [2]	SMILES
<50	less than 50 ug/mL		Cc1cccc(-c2nn3c(c2-c2ccnc4ccc(C(N)=O)cc24)CCC3)n1 [LY2157299 Monohydrate, 2-(6-methyl-pyridin-2-yl)-3-(6-amido-quinolin-4-yl)-5,6-dihydro-4H-pyrrolo[1,2-b]pyrazole, reference compound]
330	about 330 ug/mL	remained its original crystalline form	Cc1cccc(-c2nn3c(c2-c2ccnc4ccc(C(N)=O)cc24)CCC3)n1 [LY2157299 fumarate cocrystal form, 2-(6-methyl-pyridin-2-yl)-3-(6-amido-quinolin-4-yl)-5,6-dihydro-4H-pyrrolo[1,2-b]pyrazole]
130	about 130 ug/mL	remained its original crystalline form	Cc1cccc(-c2nn3c(c2-c2ccnc4ccc(C(N)=O)cc24)CCC3)n1 [LY2157299 succinate cocrystal form, 2-(6-methyl-pyridin-2-yl)-3-(6-amido-quinolin-4-yl)-5,6-dihydro-4H-pyrrolo[1,2-b]pyrazole]
